Data published in patent publication US11254652B2, “Crystalline forms of N-(4-(4-(cyclopropymethyl)piperazine-1-carbonyl)phenyl)quinoline-8-sulfonamide” (Agios Pharmaceuticals, Inc., priority 2017, dated 2022).
Where two headings read alike, the source gives them in different places.

Tests used:
Assay type in all cases: physicochemical
[1] = Humidity / desiccant exposure test followed by XRPD analysis; conditions: for XRPD after exposure to phosphorus pentoxide (P2O5) granules: one week
Method: FIG. 5 (i) depicts X-ray powder diffraction pattern (XRPD) overlay for crystalline hemisulfate salt Form A and after exposure to 11%, 48%, and 75% relative humidity and 40° C. for two weeks. […] FIG. 5 (ii) depicts XRPD overlay for crystalline hemisulfate salt Form A and after exposure to phosphorus pentoxide (P2O5) granules at room temperature and 50° C. for one week, as well as ambient temperature in a vial for 24 hrs.
The water content by Karl Fisher was about 5.3%. […] A DVS isotherm taken at 40° C. was essentially the same as the one at 25° C. […] Humidity test was conducted on Form A with exposure to 11%, 48%, and 75% relative humidity at 40° C. for 2 weeks followed by XRPD analysis. […] Crystallographic data for Form A is as follows:
Form D was determined to be anhydrous with a melting peak at 239° C. See e.g., FIG. 9. DVS of Pattern D was performed and solid picked up about 2% moisture from 2% to 95% relative humidity.

[2] = Solubility in MeOH:Water by slow heating to dissolve at fixed solvent volume; conditions: organic solvent or mixture, thermodynamic from solid
Method: Three solvent compositions were used as MeOH:Water (99:1 vol), (98:2) and (95:5). About 25 mg of Form A was weighed into 2 mL vial and 6 volume solvent was added, then slowly heated to dissolve. For experiment with 5% water, an additional test was conducted with 8 vol solvents.

[3] = Solubility measurements by gravimetric method in solvents at 23° C. and 50° C.; conditions: for solubility at 2 days: organic solvent or mixture, thermodynamic from solid, read-out: Solubility
Method: Solubility measurements were done by gravimetric method in 20 different solvents at two temperatures (23° C. and 50° C.). About 20-30 mg of Form A, the synthesis of which is described below, was weighed and 0.75 mL solvent was added to form a slurry. The slurry was then stirred for two days at the specified temperature. The vial was centrifuged and the supernatant was collected for solubility measurement through gravimetric method. The saturated supernatant was transferred into pre-weighed 2 mL HPLC vials and weighed again (vial+liquid). The uncapped vial was then left on a 50° C. hot plate to slowly evaporate the solvent overnight. The vials were then left in the oven at 50° C. and under vacuum to remove the residual solvent so that only the dissolved solid remained. The vial was then weighed (vial+solid). From these three weights; vial, vial+liquid and vial+solid; the weight of dissolved solid and the solvent were calculated. Then using solvent density the solubility was calculated as mg solid/mL of solvent.
20-30 mg of Form A was weighed into 2 mL vial and 500 μL MeOH solvent system as outlined in the table was added. If dissolved, more solids were added to form the slurry. The slurries were then stirred for two days. The vials were centrifuged and the supernatant was collected for solubility measurement through gravimetric method by evaporation at 50° C. XRPD analysis was conducted on the solid after filtration of the slurries.
For the sake of comparison, the solubility of Compound 1, i.e., the non-crystalline freebase, was also measured in two solvent systems to see the effect of water.

Structure (SMILES): O=C(c1ccc(NS(=O)(=O)c2cccc3cccnc23)cc1)N1CCN(CC2CC2)CC1 [Form A, 1-(cyclopropylmethyl)-4-(4-(quinoline-8-sulfonamido)benzoyl)piperazin-1-ium hemisulfate sesquihydrate]
- XRPD after humidity test ([1]; 11%, 48%, and 75% relative humidity at 40° C. for 2 weeks): remained unchanged
- XRPD after exposure to phosphorus pentoxide (P2O5) granules ([1]; 50° C.): slightly shifted
- XRPD peaks after P2O5 at 50° C. then exposure to ambient ([1]; ambient for 24 hrs, changes reversible): shifted back to original positions
- XRPD after exposure to phosphorus pentoxide (P2O5) granules ([1]; room temperature): no change
- Solubility ([2]; MeOH:Water (95:5), 6 vol, temperature when dissolution 60 ° C.): 167000 µg/mL
- Solubility ([2]; MeOH:Water (95:5), 8 vol, temperature when dissolution 50 ° C.): 125000 µg/mL
- Solubility ([2]; MeOH:Water (98:2), 6 vol, temperature when dissolution 35 ° C.): 167000 µg/mL
- Solubility ([2]; MeOH:Water (99:1), 6 vol, temperature when dissolution 23 ° C.): > 167000 µg/mL
- solubility at 2 days ([3]; DCM, 23 °C, DCM, 23° C.): 2000 µg/mL
- Solubility ([3]; EtOAc, 23° C.): 0 mg solid/mL solvent
- solubility at 2 days ([3]; EtOAc, 50 °C, EtOAc, 50° C.): 2000 µg/mL
- solubility at 2 days ([3]; EtOAc:MeOH (1:1) and 5 vol % water, 23 °C, EtOAc:MeOH (1:1) and 5 vol % water, 23° C.): 3000 µg/mL
- solubility at 2 days ([3]; EtOAc:MeOH (1:1) and 5 vol % water, 50 °C, EtOAc:MeOH (1:1) and 5 vol % water, 50° C.): 12000 µg/mL
- solubility at 2 days ([3]; EtOAc:MeOH (1:1), 23 °C, EtOAc:MeOH (1:1), 23° C.): 21000 µg/mL
- solubility at 2 days ([3]; EtOAc:MeOH (1:1), 50 °C, EtOAc:MeOH (1:1), 50° C.): 240000 µg/mL
- solubility at 2 days ([3]; EtOAc:MeOH (1:9), 23 °C, EtOAc:MeOH (1:9), 23° C.): 359000 µg/mL
- solubility at 2 days ([3]; EtOAc:MeOH (1:9), 50 °C, EtOAc:MeOH (1:9), 50° C.): 531000 µg/mL
- Solubility ([3]; EtOAc:MeOH (9:1), 23° C.): 0 mg solid/mL solvent
- solubility at 2 days ([3]; EtOAc:MeOH (9:1), 50 °C, EtOAc:MeOH (9:1), 50° C.): 9000 µg/mL
- Solubility ([3]; EtOH, 23° C.): 0 mg solid/mL solvent
- solubility at 2 days ([3]; EtOH, 50 °C, EtOH, 50° C.): 1000 µg/mL
- solubility at 2 days ([3]; EtOH:MeOH (1:1), 23 °C, EtOH:MeOH (1:1), 23° C.): 2000 µg/mL
- solubility at 2 days ([3]; EtOH:MeOH (1:1), 50 °C, EtOH:MeOH (1:1), 50° C.): 11000 µg/mL
- Solubility ([3]; IPA, 23° C.): 0 mg solid/mL solvent
- solubility at 2 days ([3]; IPA, 50 °C, IPA, 50° C.): 2000 µg/mL
- solubility at 2 days ([3]; IPA:DMSO (8:2), 23 °C, IPA:DMSO (8:2), 23° C.): 11000 µg/mL
- solubility at 2 days ([3]; IPA:DMSO (8:2), 50 °C, IPA:DMSO (8:2), 50° C.): 28000 µg/mL
- solubility at 2 days ([3]; IPA:DMSO:water (70:20:10), 23 °C, IPA:DMSO:water (70:20:10), 23° C.): 1000 µg/mL
- solubility at 2 days ([3]; IPA:DMSO:water (70:20:10), 50 °C, IPA:DMSO:water (70:20:10), 50° C.): 8000 µg/mL
- solubility at 2 days ([3]; IPA:DMSO:water (70:25:5), 23 °C, IPA:DMSO:water (70:25:5), 23° C.): 2000 µg/mL
- solubility at 2 days ([3]; IPA:DMSO:water (70:25:5), 50 °C, IPA:DMSO:water (70:25:5), 50° C.): 9000 µg/mL
- solubility at 2 days ([3]; IPA:DMSO:water (80:18:2), 23 °C, IPA:DMSO:water (80:18:2), 23° C.): 1000 µg/mL
- solubility at 2 days ([3]; IPA:DMSO:water (80:18:2), 50 °C, IPA:DMSO:water (80:18:2), 50° C.): 6000 µg/mL
- Solubility ([3]; IPAc, 23° C.): 0 mg solid/mL solvent
- solubility at 2 days ([3]; IPAc, 50 °C, IPAc, 50° C.): 1000 µg/mL
- Solubility ([3]; MEK:water (20:1), 23° C.): 0 mg solid/mL solvent
- solubility at 2 days ([3]; MEK:water (20:1), 50 °C, MEK:water (20:1), 50° C.): 2000 µg/mL
- solubility at 2 days ([3]; MeOAc:MeOH (1:1) and 1 vol % water, 23 °C, MeOAc:MeOH (1:1) and 1 vol % water, 23° C.): 118000 µg/mL
- solubility at 2 days ([3]; MeOAc:MeOH (1:1) and 1 vol % water, 50 °C, MeOAc:MeOH (1:1) and 1 vol % water, 50° C.): 236000 µg/mL
